These results are taken from ChEMBL document CHEMBL4340516, “Synthesis and antitumor activity of novel steroidal imidazolium salt derivatives” (Eur J Med Chem, 2019).

Test [1] deals with SMMC-7721. Kind of test: Induction of apoptosis in human SMMC7721 cells assessed as necrotic cells at 2 uM after 48 hrs by annexin V-FITC/propidium iodide staining based flow cytometry (reference value: 0.6%). It counts as functional. (Flow cytometry measures light scatter and fluorescence of single cells or particles in a stream.)
In test [2] the test system is SMMC-7721. Description: Cell cycle arrest in human SMMC7721 cells assessed as accumulation of cells at G0/G1 phase at 1 uM after 24 hrs by propidium iodide staining-based flow cytometric analysis (reference value: 62.58 +/- 0.35%). It counts as functional.
In test [3] the test system is SMMC-7721. Description: Cell cycle arrest in human SMMC7721 cells assessed as accumulation of cells at S phase at 0.5 uM after 24 hrs by propidium iodide staining-based flow cytometric analysis (reference value: 24.5 +/- 0.05%). Format: functional.
Test [4] relates to SMMC-7721. Description: Induction of apoptosis in human SMMC7721 cells assessed as early apoptotic cells at 1 uM after 48 hrs by annexin V-FITC/propidium iodide staining based flow cytometry (reference value: 1.68%). Format: functional.
In test [5] the test system is SMMC-7721. Description: Cell cycle arrest in human SMMC7721 cells assessed as accumulation of cells at S phase at 4 uM after 24 hrs by propidium iodide staining-based flow cytometric analysis (reference value: 24.5 +/- 0.05%). Format: functional.
The subject of test [6] is SMMC-7721. Kind of test: Cell cycle arrest in human SMMC7721 cells assessed as accumulation of cells at S phase at 1 uM after 24 hrs by propidium iodide staining-based flow cytometric analysis (reference value: 24.5 +/- 0.05%). It counts as functional.
In test [7] the test system is SMMC-7721. Description: Cell cycle arrest in human SMMC7721 cells assessed as accumulation of cells at G2/M phase at 0.5 uM after 24 hrs by propidium iodide staining-based flow cytometric analysis (reference value: 8.72 +/- 0.42%). Format: functional.
Test [8] deals with SMMC-7721. Description: Antiproliferative activity against human SMMC7721 cells assessed as reduction in cell viability incubated for 48 hrs by MTS assay. Particulars: SMMC-7721, 48 h. Format: functional, cell-based. A general note: Tetrazolium dyes change colour on reduction, which living cells bring about.
Test [9] deals with SMMC-7721. Description: Induction of apoptosis in human SMMC7721 cells assessed as viable cells at 1 uM after 48 hrs by annexin V-FITC/propidium iodide staining based flow cytometry (reference value: 94.7%). It counts as functional. Particulars: SMMC-7721, 48 h, read-out: Activity.
The subject of test [10] is SMMC-7721. Kind of test: Cell cycle arrest in human SMMC7721 cells assessed as accumulation of cells at G0/G1 phase after 24 hrs by propidium iodide staining-based flow cytometric analysis. It counts as functional.
The test system of test [11] is SMMC-7721. Kind of test: Induction of apoptosis in human SMMC7721 cells assessed as late apoptotic cells at 2 uM after 48 hrs by annexin V-FITC/propidium iodide staining based flow cytometry (reference value: 3.05%). It counts as functional.
Another test deals with SW480. Description: Antiproliferative activity against human SW480 cells assessed as reduction in cell viability incubated for 48 hrs by MTS assay. Format: functional, cell-based. Particulars: SW480, 48 h.
In test [12] the test system is SMMC-7721. Description: Cell cycle arrest in human SMMC7721 cells assessed as accumulation of cells at G0/G1 phase at 4 uM after 24 hrs by propidium iodide staining-based flow cytometric analysis (reference value: 62.58 +/- 0.35%). Format: functional.
Another test concerns A549. Kind of test: Antiproliferative activity against human A549 cells assessed as reduction in cell viability incubated for 48 hrs by MTS assay. Format: functional, cell-based. As to conditions: A549, 48 h.
Test [13] has as its system SMMC-7721. Description: Induction of apoptosis in human SMMC7721 cells assessed as viable cells at 2 uM after 48 hrs by annexin V-FITC/propidium iodide staining based flow cytometry (reference value: 94.7%). Format: functional. Particulars: SMMC-7721, 48 h, read-out: Activity.
Test [14] has as its system SMMC-7721. Description: Cell cycle arrest in human SMMC7721 cells assessed as accumulation of cells at G0/G1 phase at 2 uM after 24 hrs by propidium iodide staining-based flow cytometric analysis (reference value: 62.58 +/- 0.35%). It counts as functional.
Test [15] has as its system SMMC-7721. Kind of test: Cell cycle arrest in human SMMC7721 cells assessed as accumulation of cells at G2/M phase at 4 uM after 24 hrs by propidium iodide staining-based flow cytometric analysis (reference value: 8.72 +/- 0.42%). It counts as functional.
Test [16] concerns SMMC-7721. Description: Induction of apoptosis in human SMMC7721 cells assessed as necrotic cells at 1 uM after 48 hrs by annexin V-FITC/propidium iodide staining based flow cytometry (reference value: 0.6%). It counts as functional.
The test system of a further test is MCF7. Kind of test: Antiproliferative activity against human MCF7 cells assessed as reduction in cell viability incubated for 48 hrs by MTS assay. Format: functional, cell-based. As to conditions: MCF7, 48 h.
Test [17] has as its system SMMC-7721. Description: Cell cycle arrest in human SMMC7721 cells assessed as accumulation of cells at sub-G1 phase at 0.5 uM after 24 hrs by propidium iodide staining-based flow cytometric analysis (reference value: 2.33 +/- 0.17%). It counts as functional.
Test [18] relates to SMMC-7721. Kind of test: Induction of apoptosis in human SMMC7721 cells assessed as late apoptotic cells at 1 uM after 48 hrs by annexin V-FITC/propidium iodide staining based flow cytometry (reference value: 3.05%). It counts as functional.
Test [19] has as its system SMMC-7721. Kind of test: Cell cycle arrest in human SMMC7721 cells assessed as accumulation of cells at G2/M phase at 1 uM after 24 hrs by propidium iodide staining-based flow cytometric analysis (reference value: 8.72 +/- 0.42%). It counts as functional.
Another test relates to HL-60. Kind of test: Antiproliferative activity against human HL60 cells assessed as reduction in cell viability incubated for 48 hrs by MTS assay. It counts as functional, cell-based. As to conditions: HL-60, 48 h.
Test [20] relates to SMMC-7721. Description: Induction of apoptosis in human SMMC7721 cells assessed as early apoptotic cells at 2 uM after 48 hrs by annexin V-FITC/propidium iodide staining based flow cytometry (reference value: 1.68%). Format: functional.
Test [21] deals with SMMC-7721. Description: Cell cycle arrest in human SMMC7721 cells assessed as accumulation of cells at sub-G1 phase at 1 uM after 24 hrs by propidium iodide staining-based flow cytometric analysis (reference value: 2.33 +/- 0.17%). Format: functional.
Test [22] deals with SMMC-7721. Description: Cell cycle arrest in human SMMC7721 cells assessed as accumulation of cells at G0/G1 phase at 0.5 uM after 24 hrs by propidium iodide staining-based flow cytometric analysis (reference value: 62.58 +/- 0.35%). It counts as functional.
The subject of test [23] is SMMC-7721. Description: Potency index, ratio of DDP IC50 to compound IC50 for human SMMC7721 cells. It counts as functional.

Consider `Cc1cc2c(cc1C)[n+](Cc1ccccc1Br)cn2[C@@H]1CC[C@@]2(C)C(=CC[C@H]3[C@@H]4C[C@@H]5O[C@]6(CC[C@@H](C)CO6)[C@@H](C)[C@@H]5[C@@]4(C)CC[C@@H]32)C1.[Br-]`, for which the Activity in the test on SMMC-7721 [1] is given as 6.62%; with SMMC-7721 [2] it was 78.1%; in the test with SMMC-7721 [3], 19.23%; in the test on SMMC-7721 [4], 0.373%; with SMMC-7721 [5] it was 14.22%; in the test on SMMC-7721 [6], 14.22%. Besides, the Activity was 3.49% in the test with SMMC-7721 [7]; “Dose-dependent effect” with SMMC-7721 [10]; 64.9% in the test on SMMC-7721 [11]; 78.1% in the test with SMMC-7721 [12]; 73.61% in the test on SMMC-7721 [14]; 4.67% in the test with SMMC-7721 [15]. The Activity is on record as 1.27% in the test on SMMC-7721 [16]; 2.4% in the test with SMMC-7721 [17]; 18.7% in the test on SMMC-7721 [18]; 4.67% with SMMC-7721 [19]; 0.69% in the test on SMMC-7721 [20]; 2.43% in the test with SMMC-7721 [21]. Besides, the Activity with SMMC-7721 [22] turned out to be 73.61%. Besides, the IC50 in the test with SMMC-7721 [8] stood at 440 nM; with SW480 it was 790 nM; with A549, 0.67 µM; in the test with MCF7, 730 nM; with HL-60, 490 nM. The viability at 1 µM in the test with SMMC-7721 [9] stood at 79.6%. The viability at 2 µM in the test on SMMC-7721 [13] was found to be 27.8%.
On to `C[C@@H]1CC[C@@]2(OC1)O[C@H]1C[C@H]3[C@@H]4CC=C5C[C@H](n6c[n+](Cc7ccccc7Br)c7ccccc76)CC[C@]5(C)[C@H]4CC[C@]3(C)[C@H]1[C@@H]2C.[Br-]`, for which the 50% inhibitory concentration (IC50) with SMMC-7721 [8] is 210 nM; with SW480, 2100 nM; with A549, 4.47 µM; in the test with MCF7 it was 2140 nM; in the test with HL-60, 340 nM. Besides, the “Ratio IC50” value with SMMC-7721 [23] stood at 54.
On to `COc1ccc(C(=O)C[n+]2cn([C@@H]3CC[C@@]4(C)C(=CC[C@H]5[C@@H]6C[C@@H]7O[C@]8(CC[C@@H](C)CO8)[C@@H](C)[C@@H]7[C@@]6(C)CC[C@@H]54)C3)c3ccccc32)cc1`, for which the half-inhibitory concentration (IC50) in the test on SMMC-7721 [8] was 1450 nM; with SW480 it was 2550 nM; with A549, 2.45 µM; in the test with MCF7, 2110 nM; with HL-60, 1220 nM.
The corresponding values for `C[C@@H]1CC[C@@]2(OC1)O[C@H]1C[C@H]3[C@@H]4C[C@H](n5cc[n+](CC(=O)c6ccccc6)c5)[C@]56C[C@H]5CC[C@]6(C)[C@H]4CC[C@]3(C)[C@H]1[C@@H]2C` are 7380 nM, 7390 nM, 7.76 µM, 5500 nM and 2690 nM.

Broadly, the IC50 is the concentration needed to halve the response being measured.
